{"source": "patent US20110117008A1", "about": "“USE OF AVICINS TO DELIVER THERAPEUTIC AND DIAGNOSTIC AGENTS” (Research Development Foundation, priority 2007, published 2011)", "key": {"[1]": {"settings": "cited from earlier work"}, "[2]": {"test_system": "full thickness porcine skin", "experiment": "3H-estradiol transport and percutaneous absorption, full thickness porcine skin, side by side diffusion cells", "format": "in vitro ADME, pig", "settings": "3H-estradiol in PBS; F094 5-20 mg/ml, Avicin D and Avicin G 1 mg/ml; 24 hours", "protocol": "Each solution was loaded with 5 μCi/ml of 3H-Estradiol (Amersham TRK 322). Receiver compartments were sampled at 0.5 1, 2, 3, 6, 12, 18 and 24 hours.\nLikewise, Avicin D and Avicin G solutions contained 1 mg/ml of Avicin D and G respectively, along with PBS and 3H-estradiol (5 μCi/ml).\n(§1) Upon receipt, concentrated stock solutions were made in DMSO."}, "[3]": {"test_system": "full thickness porcine skin", "experiment": "Tritiated water transport through full thickness porcine skin, side by side diffusion cells, scintillation counting", "format": "in vitro ADME, pig", "settings": "tritiated water in PBS, F094 10 mg/ml, Avicin D and Avicin G 1 mg/ml, 24 hours", "protocol": "In addition, it was desired to access if the known enhancer N-Methyl Pyrrolidinone (NMP) might modulate skin's water permeability when codelivered. […] Each donor compartment solution was loaded with 5 μCi/ml (1 μg/ml) of tritiated (^3H) water. Receiver compartments were sampled at 0.5, 1, 2, 3, 6, 12, 18 and 24 hours.\nLikewise, Avicin D and Avicin G solutions contained 1 mg/ml of Avicin D and G respectively, along with PBS and tritiated water (1 μg/ml, 5 μCi/ml).\nas §1"}, "full thickness pig skin": {"test_system": "full thickness pig skin", "experiment": "Water soluble anesthetic transport in full thickness pig skin, HPLC quantification", "settings": "for Maximum % Enhancement over control: highest enhancement of the anesthetic's permeability with F094", "from_the_text": "(§2) HPLC was used to quantify delivered mass, and to calculate permabilities in lag times. Error bar represents mean+/−standard deviation.\nas §2"}, "[4]": {"experiment": "Partition coefficient of anesthetics between octanol and water, HPLC", "format": "physicochemical", "settings": "for Partition coefficient (octanol/water): as listed in Table 4; for Partition Coefficient: octanol/water"}, "[5]": {"settings": "adults with previously untreated chronic myelogenous leukemia; cited from earlier work"}, "[6]": {"settings": "cited from earlier work", "remark": "listed apart in the source"}}, "note": "Entries after “also recorded” stand apart in the source; their conditions may differ. Counter-ions that a name gives are not always drawn. *1 amine or outer side, *2 acyl side, *3 side chain or, on linkers, in order; H or OH if unused. Where a SMILES comes first, the peptide text is derived from it. Bridges are numbered along the chain shown (N, C = ends). Roman numbers before positions name the chains, in order. [ ]: non-standard residue; d: D form. Actinocin(9to1) = Cc1c2oc3c(C)ccc(C(=O)[*:1])c3nc-2c(C(=O)[*:2])c(N)c1=O; NMeV = CN[C@H](C(=O)O)C(C)C; Sar = CNCC(=O)O"}
{"smiles": "Cc1c2oc3c(C)ccc(C(=O)N[C@@H]4C(=O)N[C@H](C(C)C)C(=O)N5CCC[C@H]5C(=O)N(C)CC(=O)N(C)[C@@H](C(C)C)C(=O)O[C@@H]4C)c3nc-2c(C(=O)N[C@@H]2C(=O)N[C@H](C(C)C)C(=O)N3CCC[C@H]3C(=O)N(C)CC(=O)N(C)[C@@H](C(C)C)C(=O)O[C@@H]2C)c(N)c1=O", "note": "[Actinomycin D] (I: T[dV]P[Sar][NMeV] / II: T[dV]P[Sar][NMeV]; ester I:1-I:C, II:1-II:C; linker I:N-II:N via Actinocin(9to1))", "values": [{"measurement": "share of the dose excreted intact into the bile", "setting": "[1]; in vivo", "result": "Half of the dose"}]}
{"smiles": "C=C[C@](C)(O)CC/C=C(\\CO)C(=O)O[C@H]1[C@H](O)[C@@H](O)[C@H](O[C@@](C)(C=C)CC/C=C(\\CO)C(=O)O[C@H]2C[C@]3(C(=O)O[C@@H]4O[C@H](CO)[C@@H](O)[C@H](O)[C@H]4O[C@@H]4O[C@@H](C)[C@H](O[C@@H]5O[C@@H](CO)[C@H](O)[C@H]5O)[C@@H](O[C@@H]5O[C@H](CO)[C@@H](O)[C@H](O)[C@H]5O)[C@H]4O)[C@H](O)C[C@]4(C)C(=CC[C@@H]5[C@@]6(C)CC[C@H](O[C@@H]7O[C@H](CO[C@@H]8O[C@H](C)[C@H](O)[C@H](O)[C@H]8O[C@@H]8OC[C@@H](O)[C@H](O)[C@H]8O)[C@@H](O)[C@H](O)[C@H]7NC(C)=O)C(C)(C)[C@@H]6CC[C@]54C)[C@@H]3CC2(C)C)O[C@@H]1C", "note": "[Avicin D]", "values": [{"measurement": "effect on estradiol transport / estradiol permeability of skin", "setting": "[2]", "result": "potent enhancer of water and estradiol permeability through the skin; also recorded: increase estradiol permeability of skin as compared to Avicin G"}, {"measurement": "effect on water transport / water permeability of skin", "setting": "[3]", "result": "potent enhancer of water and estradiol permeability through the skin; also recorded: increases water permeability of skin as compared to Avicin G"}, {"measurement": "effect on water transport / water permeability of skin", "setting": "[3]; listed as avicin D", "result": "differentially enhance water permeability"}]}
{"smiles": "C=C[C@](C)(O)CC/C=C(\\C)C(=O)O[C@H]1[C@H](O)[C@@H](O)[C@H](O[C@@](C)(C=C)CC/C=C(\\CO)C(=O)O[C@H]2C[C@]3(C(=O)O[C@@H]4O[C@H](CO)[C@@H](O)[C@H](O)[C@H]4O[C@@H]4O[C@@H](C)[C@H](O[C@@H]5O[C@@H](CO)[C@H](O)[C@H]5O)[C@@H](O[C@@H]5O[C@H](CO)[C@@H](O)[C@H](O)[C@H]5O)[C@H]4O)[C@H](O)C[C@]4(C)C(=CC[C@@H]5[C@@]6(C)CC[C@H](O[C@@H]7O[C@H](CO[C@@H]8O[C@H](C)[C@H](O)[C@H](O)[C@H]8O[C@@H]8OC[C@@H](O)[C@H](O)[C@H]8O)[C@@H](O)[C@H](O)[C@H]7NC(C)=O)C(C)(C)[C@@H]6CC[C@]54C)[C@@H]3CC2(C)C)O[C@@H]1C", "note": "[Avicin G]", "values": [{"measurement": "effect on water transport / water permeability of skin", "setting": "[3]", "result": "inhibits water transport in comparison to Avicin D; also recorded: differentially enhance water permeability"}]}
{"smiles": "CCCCN1CCCCC1C(=O)Nc1c(C)cccc1C", "note": "(stereo not drawn) [Bupivacaine HCl]", "values": [{"measurement": "Permeability", "setting": "full thickness pig skin", "result": "0.71 ± 0.05 × 10^−3 (cm/hr)"}, {"measurement": "Lag time", "setting": "full thickness pig skin; female, pig", "result": "10.8 ± 1.1", "unit": "h"}, {"measurement": "Maximum % Enhancement over control", "setting": "full thickness pig skin", "result": 347, "unit": "%"}, {"measurement": "Partition coefficient (octanol/water)", "setting": "[4]", "result": 1.7}, {"measurement": "Partition Coefficient", "setting": "[4]; 0 mg/ml F094", "result": "3.3 ± 0.4"}, {"measurement": "Partition Coefficient", "setting": "[4]; 1 mg/ml F094", "result": "3.6 ± 0.5"}, {"measurement": "Partition Coefficient", "setting": "[4]; 5 mg/ml F094", "result": "4.1 ± 0.3"}, {"measurement": "Partition Coefficient", "setting": "[4]; 10 mg/ml F094", "result": "3.5 ± 0.8"}]}
{"smiles": "CS(=O)(=O)OCCCCOS(C)(=O)=O", "note": "[Busulfan, 1,4-butanediol dimethanesulfonate]", "values": [{"measurement": "hematologic remission with regression or stabilization of organomegaly", "setting": "[5]", "result": "Approximately 90%"}]}
{"smiles": "O=C(O)CCCc1ccc(N(CCCl)CCCl)cc1", "note": "[Chlorambucil, 4-[bis(2-chlorethyl)amino]benzenebutanoic acid]", "values": [{"measurement": "oral / gastrointestinal absorption", "setting": "[1]; in vivo, po", "result": "rapidly and completely absorbed from the gastrointestinal tract"}, {"measurement": "terminal half-life", "setting": "[1]; plasma", "result": "~1.5", "unit": "h"}]}
{"smiles": "N.N.[Cl][Pt][Cl]", "note": "[Cisplatin]", "values": [{"measurement": "oral / gastrointestinal absorption", "setting": "[1]; in vivo, po", "result": "not absorbed orally"}]}
{"smiles": "COc1cccc2c1C(=O)c1c(O)c3c(c(O)c1C2=O)C[C@@](O)(C(C)=O)C[C@@H]3O[C@H]1C[C@H](N)[C@H](O)[C@H](C)O1", "note": "[Daunorubicin]", "values": [{"measurement": "oral / gastrointestinal absorption", "setting": "[1]; in vivo, po", "result": "Oral absorption is poor"}]}
{"smiles": "COc1cccc2c1C(=O)c1c(O)c3c(c(O)c1C2=O)C[C@@](O)(C(=O)CO)C[C@@H]3O[C@H]1C[C@H](N)[C@H](O)[C@H](C)O1", "note": "[Doxorubicin, 5,12-Naphthacenedione, (8s-cis)-10-[(3-amino-2,3,6-trideoxy-a-L-lyxo-hexopyranosyl)oxy]-7,8,9,10-tetrahydro-6,8,11-trihydroxy-8-(hydroxyacetyl)-1-methoxy-hydrochloride]", "values": [{"measurement": "oral / gastrointestinal absorption", "setting": "[1]; in vivo, po", "result": "absorbed poorly"}]}
{"smiles": "O=NN(CCCl)C(=O)NC1CCCCC1", "note": "[Lomustine, 1-(2-chloro-ethyl)-3-cyclohexyl-1 nitrosourea]", "values": [{"measurement": "radioactivity excreted in the form of degradation products", "setting": "[1]; in vivo, po", "result": "about half"}]}
{"smiles": "CCCNC(C)C(=O)Nc1ccccc1C", "note": "(stereo not drawn) [Prilocaine HCl]", "values": [{"measurement": "Permeability", "setting": "full thickness pig skin", "result": "0.46 ± 0.11 × 10^−3 (cm/hr)"}, {"measurement": "Maximum % Enhancement over control", "setting": "full thickness pig skin", "result": 228, "unit": "%"}, {"measurement": "Partition coefficient (octanol/water)", "setting": "[4]", "result": 0.43}, {"measurement": "Partition Coefficient", "setting": "[4]; 0 mg/ml F094", "result": "0.47 ± 0.03"}, {"measurement": "Partition Coefficient", "setting": "[4]; 1 mg/ml F094", "result": "0.43 ± 0.02"}, {"measurement": "Partition Coefficient", "setting": "[4]; 5 mg/ml F094", "result": "0.51 ± 0.02"}, {"measurement": "Partition Coefficient", "setting": "[4]; 10 mg/ml F094", "result": "0.50 ± 0.01"}]}
{"smiles": "CC[C@@]1(O)C(=O)OCc2c1cc1n(c2=O)Cc2cc3ccccc3nc2-1", "note": "[camptothecin, Camptothecin]", "values": [{"measurement": "solubility in water", "setting": "[6]", "result": "poor water-solubility"}, {"measurement": "storage stability", "setting": "[6]; stored at 2-8° C. in a dry, airtight, light-resistant environment", "result": "stable for at least two years"}]}
{"smiles": "CC[C@]1(O)C[C@@H]2CN(CCc3c([nH]c4ccccc34)[C@@](C(=O)OC)(c3cc4c(cc3OC)N(C)[C@H]3[C@@](O)(C(=O)OC)[C@H](OC(C)=O)[C@]5(CC)C=CCN6CC[C@]43[C@@H]65)C2)C1", "note": "[vinblastine, Vinblastine]", "values": [{"measurement": "plasma half-life after distribution (first)", "setting": "[1]; after intravenous injection", "result": "approximately 1 hours"}, {"measurement": "plasma half-life after distribution (second)", "setting": "[1]; after intravenous injection", "result": "~72000", "unit": "s"}, {"measurement": "oral / gastrointestinal absorption", "setting": "[1]; in vivo, po", "result": "Unpredictable absorption"}]}
{"smiles": "CC[C@]1(O)C[C@H]2CN(CCc3c([nH]c4ccccc34)[C@@](C(=O)OC)(c3cc4c(cc3OC)N(C=O)[C@H]3[C@@](O)(C(=O)OC)[C@H](OC(C)=O)[C@]5(CC)C=CCN6CC[C@]43[C@@H]65)C2)C1", "note": "[vincristine, Vincristine]", "values": [{"measurement": "oral / gastrointestinal absorption", "setting": "[1]; in vivo, po", "result": "Unpredictable absorption"}]}
